# In ChEMBL document CHEMBL1126334, “Thromboxane receptor antagonist BMS-180291: A new pre-clinical lead” (Bioorg Med Chem Lett, 1992):
# The source made the active and inactive calls. The calls are words filed in the database; no cut-off is given here.
# Assays:
# [1] = Oral bioavailability in African green monkeys; 20-25; format: ADME, organism-based; conditions: chlorocebus aethiops, in vivo, read-out: Bioavailabiility
# Bos taurus = species: Bos taurus; assay: Compound was tested at 1 nM for the inhibition of […] in bovine seminal vesicle microsomes; NI=No inhibition; format: functional
# Mus musculus = assay: Time duration taken by the compound (0.2 mg/kg, po) to provide extended protection from U46,619 (2 mg/kg, iv) induced death; format: functional
# Homo sapiens = species: Homo sapiens; assay: Compound was tested at 1 mM for the inhibition of ADP-induced (20 uM) platelet aggregation in human platelet-rich plasma; NI=No inhibition; format: functional, organism-based
# Monkey = assay: Oral dose of compound required to inhibit the U46,619-induced platelet aggregation in ex vivo African green monkeys; format: functional, Cercopithecidae
# [2] = target: T1, Thromboxane-A synthase (Homo sapiens) (UniProt P24557); assay: Compound was tested for activity against Thromboxane A2 synthase in human PRP; NI=No inhibition
# T1 sequence (whole entry): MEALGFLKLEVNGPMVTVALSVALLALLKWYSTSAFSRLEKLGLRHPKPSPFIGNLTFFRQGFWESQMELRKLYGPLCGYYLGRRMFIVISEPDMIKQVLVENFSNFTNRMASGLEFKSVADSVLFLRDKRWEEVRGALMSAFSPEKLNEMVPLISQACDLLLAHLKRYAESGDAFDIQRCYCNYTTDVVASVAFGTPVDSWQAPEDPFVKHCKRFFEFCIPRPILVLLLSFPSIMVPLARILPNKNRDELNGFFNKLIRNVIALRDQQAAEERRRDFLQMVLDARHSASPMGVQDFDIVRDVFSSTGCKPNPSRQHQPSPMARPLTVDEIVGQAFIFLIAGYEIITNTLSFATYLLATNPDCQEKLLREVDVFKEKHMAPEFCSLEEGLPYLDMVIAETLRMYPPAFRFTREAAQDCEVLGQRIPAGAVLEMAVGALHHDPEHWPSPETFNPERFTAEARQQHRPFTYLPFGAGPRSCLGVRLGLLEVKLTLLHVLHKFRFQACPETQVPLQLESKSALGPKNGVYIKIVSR
# Rattus norvegicus = species: Rattus norvegicus; assay: Compound was tested for the inhibition of U46,619-induced contractions in rat aortas; format: functional; conditions: Aorta
compound,measurement,setting,value
CCCCCNC(=O)c1coc([C@H]2[C@@H](Cc3ccccc3CCC(=O)O)[C@@H]3CC[C@H]2O3)n1 [IFETROBAN],bioavailability,[1],20%
same,Activity,Bos taurus,inactive
same,T50,Mus musculus,14 h
same,Activity,Homo sapiens,inactive
same,Dose,Monkey,3 mg/kg
same,Activity,[2],inactive
same,Kb,Rattus norvegicus,0.56 nM
